Drawing on ChEMBL document CHEMBL1154205, “Click chemistry based rapid one-pot synthesis and evaluation for protease inhibition of new tetracyclic triazole fused benzodiazepine derivatives” (Bioorg Med Chem Lett, 2009), this text covers IC50 and inhibition for six molecules.

Assay [1] can be described thus: Inhibition of serine protease.
A short description of assay [2]: Inhibition of cysteine protease.
Assay [3] in a line: Inhibition of aspartic protease.

Structures are written as SMILES. Calls of active or inactive are those of the source. The calls are words filed in the database; no cut-off is given here.

For orientation: IC50 means the point on the concentration scale where inhibition reaches its midpoint. `Cc1cc(Br)cc2c1C(=O)N1CCC[C@H]1c1cnnn1-2`: the IC50 in assay [1] is 674 µM; in assay [2], “Not Active”. Besides, the inhibition result in assay [3] was “inactive”.

On to `O=C1c2c(cccc2[N+](=O)[O-])-n2nncc2[C@@H]2CCCN12`, for which the IC50 in assay [1] was 108 µM; in assay [2], “Not Active”. In assay [3], the inhibition entry was “inactive”.

Consider `Cc1cccc2c1C(=O)N1C[C@H](OCc3ccccc3)C[C@H]1c1cnnn1-2`, for which the IC50 in assay [1] is 536 µM; in assay [2], “Not Active”. Moreover, the inhibition entry in assay [3] is “inactive”.

In the case of `O=C1c2cc(Br)ccc2-n2nncc2[C@@H]2C[C@@H](OCc3ccccc3)CN12`, the values for the IC50 in assay [1] and in assay [2] were 206 µM and “Not Active”, respectively. Moreover, in assay [3], the inhibition result is “inactive”.

Consider `O=C1c2cc(I)cc(I)c2-n2nncc2[C@@H]2C[C@@H](OCc3ccccc3)CN12`, for which the IC50 was 196 µM in assay [1] and “Not Active” in assay [2]. Besides, in assay [3], the inhibition result was “inactive”.

For `O=C1c2cc(Br)ccc2-n2nncc2[C@@H]2CCCN12`, the IC50 in assay [1] is 290 µM; in assay [2], “Not Active”. In assay [3], the inhibition result is “inactive”.
